# Measurements as given in ChEMBL document CHEMBL4004890, “RITA Mimics: Synthesis and Mechanistic Evaluation of Asymmetric Linked Trithiazoles” (2017).
# Calls of active or inactive are those of the source. No cut-off for these calls is given here.
# Key:
# HCT-116 [1] = experiment: Growth inhibition of human HCT116 cells at 10 uM after 24 hrs by CCK8 assay relative to control; assay type: functional
# HCT-116 [2] = experiment: Growth inhibition of human HCT116 cells after 24 hrs by CCK8 assay; assay type: functional; conditions: HCT-116, 24 h
# HCT-116 [3] = experiment: Induction of apoptosis in human HCT116 cells at 1 uM after 24 hrs by Annexin-V-FITC/7AAD staining based flow cytometry; assay type: functional, cell-based
# HCT-116 [4] = experiment: Induction of apoptosis in human HCT116 cells at 10 uM after 24 hrs by Annexin-V-FITC/7AAD staining based flow cytometry; assay type: functional, cell-based
# HCT-116 [5] = experiment: Upregulation of p53 expression in human HCT116 cells at 1 uM at 6 hrs post dose by chemiluminescent immunoblotting; assay type: functional, cell-based
# HCT-116 [6] = experiment: Upregulation of p53 expression in human HCT116 cells at 10 uM at 12 hrs post dose by chemiluminescent immunoblotting; assay type: functional, cell-based
# HCT-116 [7] = experiment: Down regulation of c-Myc expression in human HCT116 cells at 1 uM after 6 hrs by chemiluminescent immunoblotting; assay type: functional, cell-based
# HCT-116 [8] = experiment: Down regulation of c-Myc expression in human HCT116 cells at 10 uM after 6 to 24 hrs by chemiluminescent immunoblotting; assay type: functional, cell-based
# HCT-116 [9] = experiment: Down regulation of c-Myc expression in human HCT116 cells at 1 uM after 12 to 24 hrs by chemiluminescent immunoblotting; assay type: functional, cell-based
# HCT-116 [10] = experiment: Down regulation of Mcl-1 expression in human HCT116 cells at 1 to 10 uM after 6 to 24 hrs by chemiluminescent immunoblotting; assay type: functional, cell-based
# HCT-116 [11] = experiment: Antiproliferative activity against human HCT116 cells; assay type: functional
# K562 = experiment: Antiproliferative activity against human K562 cells; assay type: functional
# CCRF-CEM = experiment: Antiproliferative activity against human CCRF-CEM cells; assay type: functional
smiles,measurement,setting,value
CCOC(=O)c1csc(-c2csc(-c3csc([C@H](N)Cc4ccccc4)n3)n2)n1,growth inhibition (GI),HCT-116 [1],inactive
OCc1ccc(-c2ccc(-c3ccc(CO)s3)o2)s1,GI50,HCT-116 [2],800 nM
same,Activity,HCT-116 [3],Active
same,Activity,HCT-116 [4],Active
same,Activity,HCT-116 [5],Active
same,Activity,HCT-116 [6],Active
same,Activity,HCT-116 [7],Active
same,Activity,HCT-116 [8],Active
same,Activity,HCT-116 [9],inactive
same,Activity,HCT-116 [10],Active
same,GI50,HCT-116 [11],110 nM
CCOC(=O)c1csc(-c2csc(-c3csc([C@@H]4Cc5ccccc5CN4C(=O)OC(C)(C)C)n3)n2)n1,growth inhibition (GI),HCT-116 [1],inactive
CCOC(=O)c1csc(-c2csc(-c3csc([C@@H](N)Cc4ccccc4)n3)n2)n1,growth inhibition (GI),HCT-116 [1],inactive
CC(C)(C)OC(=O)N1Cc2ccccc2C[C@H]1c1nc(-c2nc(-c3nc(C(N)=O)cs3)cs2)cs1,growth inhibition (GI),HCT-116 [1],inactive
Cc1nc(Nc2ncc(C(=O)Nc3c(C)cccc3Cl)s2)cc(N2CCN(CCO)CC2)n1 [DASATINIB],GI50,K562,< 1 nM
CN[C@@H](C)C(=O)N[C@H](C(=O)N1CCC[C@H]1c1nc(C(=O)c2ccc(F)cc2)cs1)C1CCCCC1 [LCL-161],GI50,CCRF-CEM,250 nM
CCOC(=O)c1csc(-c2csc(-c3csc([C@H](Cc4ccccc4)NC(=O)OC(C)(C)C)n3)n2)n1,growth inhibition (GI),HCT-116 [1],inactive
CC(C)(C)OC(=O)N[C@H](Cc1ccccc1)c1nc(-c2nc(-c3nc(C(N)=O)cs3)cs2)cs1,growth inhibition (GI),HCT-116 [1],inactive
CC(C)(C)OC(=O)N[C@@H](Cc1ccccc1)c1nc(-c2nc(-c3nc(C(N)=O)cs3)cs2)cs1,growth inhibition (GI),HCT-116 [1],inactive
